Source: ChEMBL document CHEMBL1151449, “In vitro activity of DC-159a, a new broad-spectrum fluoroquinolone, compared with that of other agents against drug-susceptible and -resistant pneumococci” (2008)
≈ marks a conversion by molar mass, not a printed value.

How the values were obtained:
Format in all cases: functional
Streptococcus pneumoniae [1] = experiment: Antibacterial activity against penicillin-susceptible Streptococcus pneumoniae ATCC 49619 by agar dilution method
Streptococcus pneumoniae [2] = experiment: Antibacterial activity against azithromycin-susceptible Streptococcus pneumoniae ATCC 49619 by agar dilution method
Streptococcus pneumoniae [3] = experiment: Antibacterial activity against quinolone-susceptible Streptococcus pneumoniae ATCC 49619 by agar dilution method
Streptococcus pneumoniae [4] = experiment: Antibacterial activity against penicillin-intermediate Streptococcus pneumoniae […] by agar dilution method
Streptococcus pneumoniae [5] = experiment: Antibacterial activity against penicillin-resistant Streptococcus pneumoniae […] by agar dilution method
Streptococcus pneumoniae [6] = experiment: Antibacterial activity against azithromycin-resistant Streptococcus pneumoniae […] by agar dilution method
Streptococcus pneumoniae [7] = experiment: Antibacterial activity against quinolone-resistant Streptococcus pneumoniae […] by agar dilution method
Streptococcus pneumoniae [8] = experiment: Antibacterial activity against penicillin-, macrolide-susceptible and quinolone-resistant Streptococcus pneumoniae HMC 1074 harboring S81F, E85K mutation in quinolone-resistant determining regions of GyrA gene, S79F mutation in QRDR of ParC gene and I460V mutation in QRDR of ParE gene after 27 passages with gemifloxacin measured after 10 daily antibiotic-free subculturing by multi-step resistance selection technique
Streptococcus pneumoniae [9] = experiment: Antibacterial activity against Streptococcus pneumoniae HMC 1078 harboring S81F mutation in quinolone-resistant determining regions of GyrA gene, S79F mutation in QRDR of ParC gene and I460V mutation in QRDR of ParE gene by agar dilution method
Streptococcus pneumoniae [10] = experiment: Antibacterial activity against Streptococcus pneumoniae HMC 1076 harboring S81F mutation in quinolone-resistant determining regions of GyrA gene, D83N mutation in QRDR of ParC gene and I460V mutation in QRDR of ParE gene by agar dilution method
Streptococcus pneumoniae [11] = experiment: Antibacterial activity against Streptococcus pneumoniae HMC 1071 harboring S81F mutation in quinolone-resistant determining regions of GyrA gene and S79F, K137N mutation in QRDR of ParC gene by agar dilution method
Streptococcus pneumoniae [12] = experiment: Antibacterial activity against Streptococcus pneumoniae HMC 1074 harboring S81F mutation in quinolone-resistant determining regions of GyrA gene, S79F mutation in QRDR of ParC gene and I460V mutation in QRDR of ParE gene by agar dilution method
Streptococcus pneumoniae [13] = experiment: Antibacterial activity against Streptococcus pneumoniae HMC 1146 harboring S81F mutation in quinolone-resistant determining regions of GyrA gene, and D435N mutation in QRDR of ParE gene by agar dilution method
Streptococcus pneumoniae [14] = experiment: Antibacterial activity against Streptococcus pneumoniae HMC 1139 harboring S81F mutation in quinolone-resistant determining regions of GyrA gene, S79F, K137N mutation in QRDR of ParC gene and I460V mutation in QRDR of ParE gene by agar dilution method
Streptococcus pneumoniae [15] = experiment: Antibacterial activity against Streptococcus pneumoniae HMC 1151 harboring D83N, K137N mutation in quinolone-resistant determining regions of ParC gene and I460V mutation in QRDR of ParE gene showing efflux to ciprofloxacin, gemifloxacin by agar dilution method
Streptococcus pneumoniae [16] = experiment: Antibacterial activity against Streptococcus pneumoniae HMC 1062 harboring S81F mutation in quinolone-resistant determining regions of GyrA gene, S79F mutation in QRDR of ParC gene and I460V mutation in QRDR of ParE gene by agar dilution method
Streptococcus pneumoniae [17] = experiment: Antibacterial activity against Streptococcus pneumoniae HMC 1541 harboring S81Y mutation in quinolone-resistant determining regions of GyrA gene, S79F, K137N mutation in QRDR of ParC gene and I460V mutation in QRDR of ParE gene by agar dilution method
Streptococcus pneumoniae [18] = experiment: Antibacterial activity against Streptococcus pneumoniae HMC 1070 harboring S81F mutation in quinolone-resistant determining regions of GyrA gene, D83N mutation in QRDR of ParC gene and I460V mutation in QRDR of ParE gene by agar dilution method
Streptococcus pneumoniae [19] = experiment: Antibacterial activity against Streptococcus pneumoniae HMC 2538 harboring S81Y mutation in quinolone-resistant determining regions of GyrA gene, S79F, K137N mutation in QRDR of ParC gene and I460V mutation in QRDR of ParE gene showing efflux to ciprofloxacin, levofloxacin, gatifloxacin by agar dilution method
Streptococcus pneumoniae [20] = experiment: Antibacterial activity against Streptococcus pneumoniae HMC 1066 harboring S81F mutation in quinolone-resistant determining regions of GyrA gene, S79F mutation in QRDR of ParC gene and I460V mutation in QRDR of ParE gene by agar dilution method
Streptococcus pneumoniae [21] = experiment: Antibacterial activity against Streptococcus pneumoniae HMC 1058 harboring S79F, K137N mutation in quinolone-resistant determining regions of ParC gene and 460V mutation in QRDR of ParE gene by agar dilution method
Streptococcus pneumoniae [22] = experiment: Antibacterial activity against Streptococcus pneumoniae HMC 2527 harboring S81Y mutation in quinolone-resistant determining regions of GyrA gene, S79F, K137N mutation in QRDR of ParC gene and I460V mutation in QRDR of ParE gene by agar dilution method
Streptococcus pneumoniae [23] = experiment: Antibacterial activity against Streptococcus pneumoniae HMC 1060 harboring S81F mutation in quinolone-resistant determining regions of GyrA gene, S79F, K137N mutation in QRDR of ParC gene and I460V mutation in QRDR of ParE gene by agar dilution method
Streptococcus pneumoniae [24] = experiment: Antibacterial activity against Streptococcus pneumoniae HMC 1150 harboring S81C mutation in quinolone-resistant determining regions of GyrA gene, S79F mutation in QRDR of ParC gene and I460V mutation in QRDR of ParE gene by agar dilution method
Streptococcus pneumoniae [25] = experiment: Antibacterial activity against Streptococcus pneumoniae HMC 1149 harboring S81F and S79Y mutation in quinolone-resistant determining regions of GyrA and ParC genes respectively showing efflux to ciprofloxacin, gemifloxacin by agar dilution method
Streptococcus pneumoniae [26] = experiment: Antibacterial activity against Streptococcus pneumoniae HMC 1156 harboring S81F and S79F mutation in quinolone-resistant determining regions of GyrA and ParC genes respectively showing efflux to ciprofloxacin, gemifloxacin by agar dilution method
Streptococcus pneumoniae [27] = experiment: Antibacterial activity against Streptococcus pneumoniae HMC 1059 harboring S81F mutation in quinolone-resistant determining regions of GyrA gene, S79F, K137N mutation in QRDR of ParC gene and I460N mutation in QRDR of ParE gene by agar dilution method
Streptococcus pneumoniae [28] = experiment: Antibacterial activity against Streptococcus pneumoniae HMC 1055 harboring S81F mutation in quinolone-resistant determining regions of GyrA gene, S79F, K137N mutation in QRDR of ParC gene and I460V mutation in QRDR of ParE gene by agar dilution method
Streptococcus pneumoniae [29] = experiment: Antibacterial activity against Streptococcus pneumoniae HMC 1077 harboring S81Y and S79F mutation in quinolone-resistant determining regions of GyrA and ParC genes respectively by agar dilution method
Streptococcus pneumoniae [30] = experiment: Antibacterial activity against Streptococcus pneumoniae HMC 1072 harboring S81F mutation in quinolone-resistant determining regions of GyrA gene, S79Y mutation in QRDR of ParC gene and I460V mutation in QRDR of ParE gene by agar dilution method
Streptococcus pneumoniae [31] = experiment: Antibacterial activity against Streptococcus pneumoniae HMC 2536 harboring S81Y mutation in quinolone-resistant determining regions of GyrA gene, S79F, K137N mutation in QRDR of ParC gene and I460V mutation in QRDR of ParE gene by agar dilution method
Streptococcus pneumoniae [32] = experiment: Antibacterial activity against Streptococcus pneumoniae HMC 1068 harboring E85K mutation in quinolone-resistant determining regions of GyrA gene, S79Y, K137N mutation in QRDR of ParC gene and I460V mutation in QRDR of ParE gene showing efflux to ciprofloxacin, levofloxacin by agar dilution method
Streptococcus pneumoniae [33] = experiment: Antibacterial activity against Streptococcus pneumoniae HMC 4026 harboring S81Y mutation in quinolone-resistant determining regions of GyrA gene, S79F, K137N mutation in QRDR of ParC gene and I460V mutation in QRDR of ParE gene by agar dilution method
Streptococcus pneumoniae [34] = experiment: Antibacterial activity against Streptococcus pneumoniae HMC 5041 harboring S81F and S79F mutation in quinolone-resistant determining regions of GyrA and ParC genes respectively by agar dilution method
Streptococcus pneumoniae [35] = experiment: Antibacterial activity against Streptococcus pneumoniae HMC 1147 harboring S81F mutation in quinolone-resistant determining regions of GyrA gene, S79F mutation in QRDR of ParC gene and I460V mutation in QRDR of ParE gene showing efflux to gemifloxacin by agar dilution method
Streptococcus pneumoniae [36] = experiment: Antibacterial activity against Streptococcus pneumoniae HMC 1073 harboring S81F mutation in quinolone-resistant determining regions of GyrA gene, and I460V mutation in QRDR of ParE gene by agar dilution method

## CC1(C)S[C@@H]2[C@H](NC(=O)Cc3ccccc3)C(=O)N2[C@H]1C(=O)O [PENICILLIN G]
Streptococcus pneumoniae [1]
  MIC50: 0.03 µg/mL (≈ 0.0897 µM)
  MIC90: 0.06 µg/mL (≈ 0.179 µM)
Streptococcus pneumoniae [2]
  MIC50: 0.25 µg/mL (≈ 0.748 µM)
  MIC90: 2 µg/mL (≈ 5.98 µM)
Streptococcus pneumoniae [3]
  MIC50: 0.25 µg/mL (≈ 0.748 µM)
  MIC90: 4 µg/mL (≈ 12 µM)
Streptococcus pneumoniae [4]
  MIC50: 0.25 µg/mL (≈ 0.748 µM)
  MIC90: 1 µg/mL (≈ 2.99 µM)
Streptococcus pneumoniae [5]
  MIC50: 2 µg/mL (≈ 5.98 µM)
  MIC90: 4 µg/mL (≈ 12 µM)
Streptococcus pneumoniae [6]
  MIC50: 0.5 µg/mL (≈ 1.5 µM)
  MIC90: 4 µg/mL (≈ 12 µM)
Streptococcus pneumoniae [7]
  MIC50: 0.5 µg/mL (≈ 1.5 µM)
  MIC90: 4 µg/mL (≈ 12 µM)

## C[C@H]1COc2c(N3CCN(C)CC3)c(F)cc3c(=O)c(C(=O)O)cn1c23.C[C@H]1COc2c(N3CCN(C)CC3)c(F)cc3c(=O)c(C(=O)O)cn1c23.O [LEVOFLOXACIN]
Streptococcus pneumoniae [1]
  MIC50: 1 µg/mL
  MIC90: 4 µg/mL
Streptococcus pneumoniae [2]
  MIC50: 1 µg/mL
  MIC90: 8 µg/mL
Streptococcus pneumoniae [8]
  MIC: 64 µg/mL
Streptococcus pneumoniae [3]
  MIC50: 1 µg/mL
  MIC90: 1 µg/mL
Streptococcus pneumoniae [4]
  MIC50: 1 µg/mL
  MIC90: 1 µg/mL
Streptococcus pneumoniae [5]
  MIC50: 1 µg/mL
  MIC90: 8 µg/mL
Streptococcus pneumoniae [6]
  MIC50: 1 µg/mL
  MIC90: 2 µg/mL
Streptococcus pneumoniae [7]
  MIC50: 16 µg/mL
  MIC90: 16 µg/mL

## CC[C@H]1OC(=O)[C@H](C)C(=O)[C@H](C)[C@@H](O[C@@H]2O[C@H](C)C[C@H](N(C)C)[C@H]2O)[C@](C)(OC)C[C@@H](C)C(=O)[C@H](C)[C@H]2N(CCCCn3cnc(-c4cccnc4)c3)C(=O)O[C@]12C [TELITHROMYCIN]
Streptococcus pneumoniae [1]
  MIC50: 0.03 µg/mL (≈ 0.0369 µM)
  MIC90: 0.12 µg/mL (≈ 0.148 µM)
Streptococcus pneumoniae [2]
  MIC50: 0.016 µg/mL (≈ 0.0197 µM)
  MIC90: 0.03 µg/mL (≈ 0.0369 µM)
Streptococcus pneumoniae [3]
  MIC50: 0.03 µg/mL (≈ 0.0369 µM)
  MIC90: 0.12 µg/mL (≈ 0.148 µM)
Streptococcus pneumoniae [4]
  MIC50: 0.03 µg/mL (≈ 0.0369 µM)
  MIC90: 0.12 µg/mL (≈ 0.148 µM)
Streptococcus pneumoniae [5]
  MIC50: 0.06 µg/mL (≈ 0.0739 µM)
  MIC90: 0.25 µg/mL (≈ 0.308 µM)
Streptococcus pneumoniae [6]
  MIC50: 0.06 µg/mL (≈ 0.0739 µM)
  MIC90: 0.25 µg/mL (≈ 0.308 µM)
Streptococcus pneumoniae [7]
  MIC50: 0.016 µg/mL (≈ 0.0197 µM)
  MIC90: 0.25 µg/mL (≈ 0.308 µM)

## O=C(O)c1cn(C2CC2)c2cc(N3CCNCC3)c(F)cc2c1=O [CIPROFLOXACIN]
Streptococcus pneumoniae [9]
  MIC: > 32 µg/mL
Streptococcus pneumoniae [10]
  MIC: 16 µg/mL (≈ 48.3 µM)
Streptococcus pneumoniae [11]
  MIC: 32 µg/mL (≈ 96.6 µM)
Streptococcus pneumoniae [12]
  MIC: 16 µg/mL (≈ 48.3 µM)
Streptococcus pneumoniae [13]
  MIC: 32 µg/mL (≈ 96.6 µM)
Streptococcus pneumoniae [14]
  MIC: 32 µg/mL (≈ 96.6 µM)
Streptococcus pneumoniae [15]
  MIC: 16 µg/mL (≈ 48.3 µM)
Streptococcus pneumoniae [16]
  MIC: > 32 µg/mL
Streptococcus pneumoniae [17]
  MIC: 16 µg/mL (≈ 48.3 µM)
Streptococcus pneumoniae [18]
  MIC: > 32 µg/mL
Streptococcus pneumoniae [19]
  MIC: 16 µg/mL (≈ 48.3 µM)
Streptococcus pneumoniae [20]
  MIC: 16 µg/mL (≈ 48.3 µM)
Streptococcus pneumoniae [21]
  MIC: 16 µg/mL (≈ 48.3 µM)
Streptococcus pneumoniae [22]
  MIC: 16 µg/mL (≈ 48.3 µM)
Streptococcus pneumoniae [23]
  MIC: 16 µg/mL (≈ 48.3 µM)
Streptococcus pneumoniae [24]
  MIC: 16 µg/mL (≈ 48.3 µM)
Streptococcus pneumoniae [25]
  MIC: 16 µg/mL (≈ 48.3 µM)
Streptococcus pneumoniae [26]
  MIC: > 32 µg/mL
Streptococcus pneumoniae [27]
  MIC: 32 µg/mL (≈ 96.6 µM)
Streptococcus pneumoniae [28]
  MIC: 32 µg/mL (≈ 96.6 µM)
Streptococcus pneumoniae [29]
  MIC: > 32 µg/mL
Streptococcus pneumoniae [30]
  MIC: > 32 µg/mL
Streptococcus pneumoniae [31]
  MIC: 16 µg/mL (≈ 48.3 µM)
Streptococcus pneumoniae [32]
  MIC: 32 µg/mL (≈ 96.6 µM)
Streptococcus pneumoniae [33]
  MIC: > 32 µg/mL
Streptococcus pneumoniae [7]
  MIC50: 16 µg/mL (≈ 48.3 µM)
  MIC90: > 32 µg/mL
Streptococcus pneumoniae [34]
  MIC: 16 µg/mL (≈ 48.3 µM)
Streptococcus pneumoniae [35]
  MIC: 32 µg/mL (≈ 96.6 µM)
Streptococcus pneumoniae [36]
  MIC: 8 µg/mL (≈ 24.1 µM)
